A short description of series [1]: Acute toxicity (LD50) in rats. As to conditions: rat, in vivo.
In series [2] the test system is liver lipid peroxide (LPO). Description: Level of liver lipid peroxide (LPO, TBA method) after surgical invasion (laparothoractomy) in rats. In kind it is in vivo, Male Donryu rats. As to conditions: 5 mg/kg i.v. an hour before surgical invasion (laparothoractomy); 24 hours later; elevation significantly suppressed, p<0.05 (Mann-Whitney U). Here is the method:
(§1) Using a model of hepatic metastasis of tumor, an experiment was conducted to determine a correlation of hepatic metastasis of tumor with a level of liver lipid peroxide (LPO). In addition, an experiment was effected on the Present Compound in terms of its suppressory effect of liver lipid peroxide (LPO) and suppressory effect on hepatic metastasis of tumor.
(§2) Male Donryu rats (ca. 10-weeks aged) were employed as an experimental animal, while AH60C cells (derived from rat hepatoma) were used as a tumor cell. The rats were divided into three groups, namely a laparothoractomy group (Group LT) undergoing intratracheal intubation, followed by thoraco-laparotomy for one hour, a laparotomy group (Group L) undergoing only laparotomy for one hour and a control group (Group C) undergoing laparotomy, followed by immediate closure of the abdomen. The rats were subjected to laparotomy under anesthesia with ether and Ketalar and given 5×10^5 of AH60C cells through the portal vein to inflict surgical invasion, followed by laparotomy three weeks later to determine the number of tumor nodules on the liver surface. In addition to this, the serum samples were drawn, while the liver and lung tissues were isolated, on Disease Days 1. 2 and 3 to determine their respective levels of lipid peroxide by the TBA method. […]

The next series relates to AH60C cells. In words: Number of tumor nodules on the liver surface in the AH60C hepatic metastasis model in rats. It is filed as in vivo, Male Donryu rats; AH60C cells derived from rat hepatoma. As to conditions: 5 mg/kg i.v. an hour before surgical invasion (laparothoractomy); 5×10^5 AH60C cells via portal vein; 3 weeks later; Group C (not treated) 27.2±30.0; p<0.01 (Mann-Whitney U). How it is done:
as §1, §2

Counter-ions that a name gives are not always drawn.

In general, LD50 refers to the dose at which mortality reaches 50%. A lower LD50 goes with greater toxicity. As to `Cc1c(C)c2c(c(C)c1OP(=O)(O)OC1=C(O)[C@@H]([C@@H](O)CO)OC1=O)CCC(C)(CCCC(C)CCCC(C)CCCC(C)C)O2` (mixture of isomers) [EPC-K, potassium salt of a phosphoric acid diester of L-ascorbic acid and DL-α-tocopherol], the results for the LD50 in series [1] (iv) and in series [1] (po) were no less than 100 mg/kg and 5000 mg/kg, respectively. Besides, the “level of liver lipid peroxide (LPO)” value in series [2] turned out to be 18.9 ± 17.9 nmol/g. Besides, in the series with AH60C cells, the “number of tumor nodules on the liver surface” value was 8.9±12.7.

The values above are taken from patent US5552389A, “Suppressory compositions against hepatic metastases of tumors” (Senju Pharmaceutical Co., Ltd., priority 1994, dated 1996).
